According to patent US5521163A, “Antiviral pyrimidine nucleosides and methods for using same” (University of Birmingham, priority 1994, dated 1996):

How the values were obtained:
HSV2 = experiment: Plaque reduction assay, HSV-2 (strain 186) in cell monolayers; format: cell-based, Herpes Simplex Virus type 2; conditions: Human alphaherpesvirus 2, Table 1; β-anomers; HSV-2 strain 186, plaque reduction
Experimental: (§1) Herpes Simplex Virus types 1 (HSV 1) and 2 (HSV2) were assayed in monolayers of Veto cells in multiwell trays. The virus strains used were SC16 and 186 for HSV-1 and HSV-2 respectively. Activity of compounds was determined in the plaque reduction assay, in which a cell monolayer was infected with a suspension of the appropirate HSV, and then overlaid with nutrient agarose in the form of a gel to ensure that there was no spread of virus throughout the culture. A range of concentrations of compound of known molarity was incorporated in the nutrient agarose overlay. Plaque numbers at each concentration were expressed as percentages of the control and a dose-response curve was drawn. From this curve the 50% inhibitory concentration (IC50) was estimated to be 0.66 μm for the compound of formula (I) in which X represents a 2-bromovinyl group.

Herpes Simplex Virus = experiment: Plaque reduction assay, HSV (type not given); format: cell-based, Herpes Simplex Virus types 1 (HSV 1) and 2 (HSV2); conditions: read-out: 50% inhibitory concentration (IC50)
Experimental: as §1

HSV1 = experiment: Plaque reduction assay, HSV-1 (strain SC16) in cell monolayers; format: cell-based, Herpes Simplex Virus type 1; conditions: Human alphaherpesvirus 1, SC16, Table 1; β-anomers; HSV-1 strain SC16, plaque reduction
Experimental: as §1

VZV = experiment: Plaque reduction assay, VZV clinical isolates in MRC-5 cells; format: cell-based, varicella zoster virus; conditions: read-out: IC50 VZV, Table 1, β-anomers
Experimental: Clinical isolates of varicella zoster virus (VZV) were assayed in monolayers of MRC-5 cells. MRC-5 cells are derived from human embyonic lung tissue. A plaque reduction assay was used in which a suspension of the virus stock was used to infect monolayers of the cells in multiwell trays. a range of concentrations of the compound under test of known molarity was added to the wells. Plaque numbers at each concnetration were expressed as percentages of the control and a dose response curve was constructed. From these curves the 50% inhibitory concentration of each drug was determined.

Structure (SMILES)	IC50 (HSV2)	IC50 (Herpes Simplex Virus)	IC50 (HSV1)	IC50 (VZV)
O=c1[nH]c(=O)n([C@H]2C[C@H](O)[C@@H](CO)S2)cc1/C=C/Br [X=CH=CHBr, Y=OH, E-5-(2-bromovinyl)-2'-deoxy-4'-thiouridine]	10000 to 100000 nM	660 nM	600 nM	
Nc1nc(=O)n([C@H]2C[C@H](O)[C@@H](CO)S2)cc1/C=C/Br [X=CH=CHBr, Y=NH2, 2'-Deoxy-5-E-(2-bromovinyl)-4'-thiocytidine]	> 10000 nM			
CCc1cn([C@H]2C[C@H](O)[C@@H](CO)S2)c(=O)[nH]c1=O [X=CH2 CH3, Y=OH, 2'-Deoxy-5-ethyl-4'-thiouridine]				990 nM
